Reference: paper PMC4188605, “Biochemical and Pharmacological Characterization of the Human Lymphocyte Antigen B-Associated Transcript 5 (BAT5/ABHD16A)” (PLoS ONE, 2014)

Tests used:
hABHD6 = target: T1, hABHD6 (Homo sapiens, UniProt Q9BV23); set-up: method as in PMID 22969151; conditions: 2-AG as the substrate; range given jointly for hABHD6, hABHD12 and hMAGL; cited from earlier work
T1 construct: expressed in transfected cells; host or cells: HEK293
T1 sequence (Q9BV23 1-337): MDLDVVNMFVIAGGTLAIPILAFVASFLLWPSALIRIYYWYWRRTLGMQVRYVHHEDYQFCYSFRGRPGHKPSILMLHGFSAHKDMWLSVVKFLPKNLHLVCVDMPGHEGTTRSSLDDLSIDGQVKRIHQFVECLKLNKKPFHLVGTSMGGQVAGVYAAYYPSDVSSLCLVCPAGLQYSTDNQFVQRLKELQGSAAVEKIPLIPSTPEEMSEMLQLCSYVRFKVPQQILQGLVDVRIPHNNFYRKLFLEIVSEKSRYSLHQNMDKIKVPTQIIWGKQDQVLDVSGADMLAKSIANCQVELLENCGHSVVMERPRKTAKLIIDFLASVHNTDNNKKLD

hMAGL = target: T2, hMAGL (Homo sapiens, UniProt Q99685); conditions: 2-AG as the substrate; range given jointly for hABHD6, hABHD12 and hMAGL; cited from earlier work
T2 construct: expressed in transfected cells; host or cells: HEK
T2 sequence (Q99685 1-303): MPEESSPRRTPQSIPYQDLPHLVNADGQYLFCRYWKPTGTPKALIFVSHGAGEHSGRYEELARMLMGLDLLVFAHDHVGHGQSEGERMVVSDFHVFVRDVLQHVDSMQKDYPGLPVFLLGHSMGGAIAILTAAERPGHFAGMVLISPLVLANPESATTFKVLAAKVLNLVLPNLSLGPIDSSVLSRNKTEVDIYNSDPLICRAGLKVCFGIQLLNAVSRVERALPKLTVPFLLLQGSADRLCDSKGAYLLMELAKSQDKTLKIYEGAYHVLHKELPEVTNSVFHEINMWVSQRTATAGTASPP

hABHD12 = target: T3, hABHD12 (Homo sapiens, UniProt Q8N2K0); set-up: method as in PMID 22969151; conditions: 2-AG as the substrate; range given jointly for hABHD6, hABHD12 and hMAGL; cited from earlier work
T3 construct: expressed in transfected cells; host or cells: HEK293
T3 sequence (Q8N2K0 1-398): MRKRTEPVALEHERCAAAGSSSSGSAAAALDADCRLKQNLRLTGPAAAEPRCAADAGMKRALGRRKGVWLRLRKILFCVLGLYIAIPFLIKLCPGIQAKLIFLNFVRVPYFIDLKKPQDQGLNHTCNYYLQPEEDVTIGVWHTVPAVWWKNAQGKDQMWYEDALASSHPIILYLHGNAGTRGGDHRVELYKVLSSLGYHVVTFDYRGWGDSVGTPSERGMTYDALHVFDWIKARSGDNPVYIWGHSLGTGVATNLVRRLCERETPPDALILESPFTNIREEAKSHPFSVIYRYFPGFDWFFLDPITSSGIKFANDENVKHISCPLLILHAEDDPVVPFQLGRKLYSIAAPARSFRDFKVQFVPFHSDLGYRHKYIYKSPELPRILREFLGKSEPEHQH

FAAH = target: T4, FAAH (Mus musculus, UniProt O08914); assay: Competitive ABPP, mouse brain membrane proteome: FAAH band
T4 sequence (O08914 1-579): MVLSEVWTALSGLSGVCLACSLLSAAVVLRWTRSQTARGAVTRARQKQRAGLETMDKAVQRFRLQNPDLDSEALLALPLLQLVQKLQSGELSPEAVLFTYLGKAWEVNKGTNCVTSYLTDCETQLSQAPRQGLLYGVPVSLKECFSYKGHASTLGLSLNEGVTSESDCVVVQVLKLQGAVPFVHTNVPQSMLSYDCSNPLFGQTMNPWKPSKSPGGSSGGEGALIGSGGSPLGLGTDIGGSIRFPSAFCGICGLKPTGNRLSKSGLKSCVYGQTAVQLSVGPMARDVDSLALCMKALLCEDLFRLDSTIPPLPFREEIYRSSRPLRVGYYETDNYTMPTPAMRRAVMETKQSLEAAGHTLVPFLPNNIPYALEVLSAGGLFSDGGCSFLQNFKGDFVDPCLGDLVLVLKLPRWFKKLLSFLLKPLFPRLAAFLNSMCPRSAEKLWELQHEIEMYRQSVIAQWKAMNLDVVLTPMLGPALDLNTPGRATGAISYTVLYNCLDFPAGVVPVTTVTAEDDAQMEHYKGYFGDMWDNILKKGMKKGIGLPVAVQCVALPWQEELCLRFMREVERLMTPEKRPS

MAGL = target: T5, MAGL (Mus musculus, UniProt O35678); assay: Competitive ABPP, mouse brain membrane proteome: MAGL doublet
T5 sequence (O35678 1-303): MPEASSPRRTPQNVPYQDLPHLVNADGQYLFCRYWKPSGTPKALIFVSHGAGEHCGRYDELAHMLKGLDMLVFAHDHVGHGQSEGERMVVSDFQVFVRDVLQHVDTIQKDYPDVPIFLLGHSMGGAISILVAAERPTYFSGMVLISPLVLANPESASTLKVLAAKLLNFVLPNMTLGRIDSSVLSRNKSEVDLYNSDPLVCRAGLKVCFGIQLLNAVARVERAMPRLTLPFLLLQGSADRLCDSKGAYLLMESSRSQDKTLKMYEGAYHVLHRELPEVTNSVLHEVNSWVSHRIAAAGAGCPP

ABHD6 = target: T6, ABHD6 (Mus musculus, UniProt Q8R2Y0); assay: Competitive ABPP, mouse brain membrane proteome: ABHD6 band; conditions: reference inhibitor at the indicated concentration, used to identify the band (refs 18, 23, 24)
T6 sequence (Q8R2Y0 1-336): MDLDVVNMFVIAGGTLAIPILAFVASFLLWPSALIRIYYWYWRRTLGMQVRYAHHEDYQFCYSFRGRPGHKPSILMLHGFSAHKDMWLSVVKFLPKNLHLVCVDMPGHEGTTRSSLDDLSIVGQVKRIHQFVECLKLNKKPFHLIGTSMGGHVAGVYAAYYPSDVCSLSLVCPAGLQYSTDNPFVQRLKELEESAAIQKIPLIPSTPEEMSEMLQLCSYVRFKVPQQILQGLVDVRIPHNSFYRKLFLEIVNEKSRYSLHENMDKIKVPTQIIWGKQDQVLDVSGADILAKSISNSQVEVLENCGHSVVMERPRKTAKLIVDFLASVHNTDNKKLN

KIAA1363 = target: T7, KIAA1363 (Mus musculus, UniProt Q8BLF1); assay: Competitive ABPP, mouse brain membrane proteome: KIAA1363 doublet; assay type: binding; conditions: 1 µM or indicated concentrations (Figure 11); 60 min
T7 construct: from tissue; host or cells: mouse whole brain membranes
T7 sequence (Q8BLF1 1-408): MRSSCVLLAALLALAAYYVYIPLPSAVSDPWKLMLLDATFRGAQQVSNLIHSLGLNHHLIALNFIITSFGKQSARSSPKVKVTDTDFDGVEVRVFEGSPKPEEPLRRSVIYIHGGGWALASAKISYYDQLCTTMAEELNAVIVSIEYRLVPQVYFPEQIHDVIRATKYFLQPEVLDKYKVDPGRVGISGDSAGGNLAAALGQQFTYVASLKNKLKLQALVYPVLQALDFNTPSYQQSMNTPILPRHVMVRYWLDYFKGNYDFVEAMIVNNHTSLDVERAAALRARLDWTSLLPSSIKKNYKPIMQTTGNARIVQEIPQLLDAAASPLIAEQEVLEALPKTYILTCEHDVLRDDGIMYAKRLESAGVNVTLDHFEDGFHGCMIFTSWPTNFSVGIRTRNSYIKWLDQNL

BAT5 = target: T8, BAT5 (Mus musculus, UniProt Q9Z1Q2); assay: Competitive ABPP, mouse brain membrane proteome: BAT5 band; conditions: mouse brain membrane proteome, competitive ABPP
T8 sequence (Q9Z1Q2 1-558): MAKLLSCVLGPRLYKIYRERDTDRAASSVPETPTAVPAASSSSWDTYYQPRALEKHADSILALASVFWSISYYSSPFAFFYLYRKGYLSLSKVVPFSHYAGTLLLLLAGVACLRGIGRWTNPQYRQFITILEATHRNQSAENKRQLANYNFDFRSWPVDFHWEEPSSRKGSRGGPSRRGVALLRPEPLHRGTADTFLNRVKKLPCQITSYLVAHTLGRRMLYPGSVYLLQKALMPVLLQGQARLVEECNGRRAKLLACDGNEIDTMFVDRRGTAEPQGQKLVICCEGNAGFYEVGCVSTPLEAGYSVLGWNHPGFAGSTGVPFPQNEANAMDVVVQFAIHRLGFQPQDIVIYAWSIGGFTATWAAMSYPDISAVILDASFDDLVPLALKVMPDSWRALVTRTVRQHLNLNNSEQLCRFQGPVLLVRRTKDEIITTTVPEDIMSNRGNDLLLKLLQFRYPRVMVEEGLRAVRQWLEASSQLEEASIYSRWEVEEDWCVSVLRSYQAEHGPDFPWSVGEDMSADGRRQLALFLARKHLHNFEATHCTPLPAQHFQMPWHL

LYPLA1/2 = assay: Competitive ABPP, mouse brain membrane proteome: LYPLA1/2 band; conditions: 1 µM or indicated concentrations (Figure 11); 60 min
hBAT5 = target: T9, hBAT5 (Homo sapiens, UniProt O95870); assay: Inhibition of 1-LG hydrolysis in hBAT5-HEK293 lysates (fluorescent glycerol assay); assay type: biochemical; set-up: host or cells: HEK293; conditions: 1-LG 25 µM; 30 min inhibitor pretreatment; monitored 90 min; mean, n=3; read-out: IC50
T9 sequence (O95870 1-558): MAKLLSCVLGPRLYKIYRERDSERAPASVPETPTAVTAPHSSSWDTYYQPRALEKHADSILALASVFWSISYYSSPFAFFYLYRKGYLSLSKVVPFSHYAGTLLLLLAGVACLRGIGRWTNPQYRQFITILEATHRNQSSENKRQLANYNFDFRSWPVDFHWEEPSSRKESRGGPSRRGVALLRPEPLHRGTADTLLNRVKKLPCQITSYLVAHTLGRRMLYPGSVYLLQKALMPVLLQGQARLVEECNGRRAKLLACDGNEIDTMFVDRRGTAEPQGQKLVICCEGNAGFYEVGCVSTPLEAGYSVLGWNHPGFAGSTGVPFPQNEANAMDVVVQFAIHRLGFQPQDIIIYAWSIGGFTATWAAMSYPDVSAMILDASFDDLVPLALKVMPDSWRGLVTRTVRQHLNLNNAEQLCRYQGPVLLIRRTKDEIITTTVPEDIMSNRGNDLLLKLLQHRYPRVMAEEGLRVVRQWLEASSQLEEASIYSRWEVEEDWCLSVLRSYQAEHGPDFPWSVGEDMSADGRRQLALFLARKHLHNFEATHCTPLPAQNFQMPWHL

[1] = 1 µM or indicated concentrations (Figure 11), 60 min

In the case of `CCCCC/C=C\C/C=C\C/C=C\C/C=C\CCCC(=O)OC(CO)CO` [2-AG, 2-arachidonoylglycerol], the Km (hABHD6) is given as 110 to 160 µM, the Km (hMAGL) is given as 110 to 160 µM and the Km (hABHD12) is given as 110 to 160 µM.

In the case of `O=C(Oc1ccc([N+](=O)[O-])cc1)N1CCN(Cc2cccc(Oc3ccccc3)c2)CC1` [JZL195], the “inhibition of probe labeling of FAAH by reference inhibitor” value (FAAH; reference inhibitor at the indicated concentration, used to identify the band (ref 21)) is reported as “inhibited”, the “inhibition of probe labeling of MAGL by reference inhibitor” value (MAGL; reference inhibitor at the indicated concentration, used to identify the band (refs 21, 22)) is reported as “inhibited” and the “inhibition of probe labeling of ABHD6 by reference inhibitor” value (ABHD6) is reported as “inhibited”.

In the case of `COc1nn(-c2cccc([N+](=O)[O-])c2)c(=O)o1` [compound 40, 5-Methoxy-3-(3-nitrophenyl)-1,3,4-oxadiazol-2(3H)-one], the “inhibition of probe binding to FAAH” value (FAAH; [1]) is reported as “did not visibly affect probe binding”, the “inhibition of probe binding to KIAA1363” value (KIAA1363) is reported as “did not visibly affect probe binding” and the “BAT5 selectivity among serine hydrolases as compared to 38” value (BAT5) is reported as “improved BAT5 selectivity”. For the same molecule, the “inhibition of probe binding to MAGL” value (MAGL; [1]) was “did not visibly affect probe binding”, the “inhibition of probe binding to LYPLA1/2” value (LYPLA1/2) was “did not visibly affect probe binding” and the IC50 (hBAT5) was 63 nM.

With `COc1nn(-c2ccc(F)cc2)c(=O)o1` [compound 44] the “inhibition of probe binding to KIAA1363” value (KIAA1363) was “shared one off-target with 38” and the “BAT5 selectivity among serine hydrolases as compared to 38” value (BAT5) was “improved BAT5 selectivity”.
